In publication PMC7717600, “Novel [(N-alkyl-3-indolylmethylene)hydrazono]oxindoles arrest cell cycle and induce cell apoptosis by inhibiting CDK2 and Bcl-2: synthesis, biological evaluation and in silico studies” (Journal of Enzyme Inhibition and Medicinal Chemistry, 2020):

Assays:
Test in all cases: cells
Conditions in all cases: Homo sapiens
[1] = test system: SF-268
[2] = test system: NCI-H226
[3] = test system: OVCAR-8
[4] = test system: A498

SMILES: CCCn1cc(C=NN=C2C(=O)Nc3ccc(C)cc32)c2ccccc21 [Compound 8a]
- GI50 ([1]; SF-268): 3.33 µM
- CC50 ([1]; SF-268, read-out: LC50): > 100 µM
- GI50 ([2]; NCI-H226): 2.95 µM
- CC50 ([2]; NCI-H226, read-out: LC50): > 100 µM
- GI50 ([3]; OVCAR-8): 5.41 µM
- CC50 ([3]; OVCAR-8, read-out: LC50): > 100 µM
- GI50 ([4]; A498): 1.37 µM
- CC50 ([4]; A498, read-out: LC50): > 100 µM
